Test results from publication PMC8130918 (PLoS Pathogens, 2021).
Values joined by “and” are separate entries in the source; they are usually repeats but may differ in a detail not shown here. Identical values can stand only once.

Experiments:
RSV MTase-CTD = RSV MTase-CTD (Human respiratory syncytial virus A, UniProt P28887); test: MTase activity inhibition, filter-binding assay (3H-methyl transfer from SAM to GpppG-RSV9 RNA); type: biochemical; settings: for IC50: 25 nM RSV MTase-CTD, 0.7 μM GpppG-RSV9 RNA, 2 μM SAM, pH 7.5, 30°C, Hill slope curve-fitting
RSV MTase-CTD, sequence (P28887 1755-2165): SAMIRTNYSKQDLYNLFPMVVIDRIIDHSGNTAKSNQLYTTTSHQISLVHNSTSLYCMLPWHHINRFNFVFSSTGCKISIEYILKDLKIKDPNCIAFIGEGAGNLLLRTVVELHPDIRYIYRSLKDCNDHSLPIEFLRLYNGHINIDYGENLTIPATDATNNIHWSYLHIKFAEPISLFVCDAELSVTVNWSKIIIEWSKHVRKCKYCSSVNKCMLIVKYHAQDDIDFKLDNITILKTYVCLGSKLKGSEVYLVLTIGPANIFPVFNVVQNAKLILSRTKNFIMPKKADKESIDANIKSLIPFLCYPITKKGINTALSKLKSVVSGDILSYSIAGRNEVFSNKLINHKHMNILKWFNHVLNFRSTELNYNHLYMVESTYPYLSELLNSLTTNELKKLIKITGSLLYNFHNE

RSV L-P complex = RSV L-P complex (Human respiratory syncytial virus A, UniProt P28887); test: MTase activity inhibition, filter-binding assay with the RSV L-P complex; type: biochemical, human RSV (strain A2); settings: 60 nM RSV L-P complex, 1.8 μM GpppG-RSV9 RNA, 0.17 μM SAM and 0.8 μM 3H-SAM, pH 7.5, 30°C
RSV L-P complex, sequence (P03421 whole entry): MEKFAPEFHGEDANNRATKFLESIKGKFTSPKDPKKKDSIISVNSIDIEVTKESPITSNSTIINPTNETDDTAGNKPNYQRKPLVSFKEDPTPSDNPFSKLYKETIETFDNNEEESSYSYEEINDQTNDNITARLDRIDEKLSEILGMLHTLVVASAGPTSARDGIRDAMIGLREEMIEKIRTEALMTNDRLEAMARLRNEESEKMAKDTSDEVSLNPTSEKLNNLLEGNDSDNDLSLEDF
RSV L-P complex, sequence (P28887 whole entry): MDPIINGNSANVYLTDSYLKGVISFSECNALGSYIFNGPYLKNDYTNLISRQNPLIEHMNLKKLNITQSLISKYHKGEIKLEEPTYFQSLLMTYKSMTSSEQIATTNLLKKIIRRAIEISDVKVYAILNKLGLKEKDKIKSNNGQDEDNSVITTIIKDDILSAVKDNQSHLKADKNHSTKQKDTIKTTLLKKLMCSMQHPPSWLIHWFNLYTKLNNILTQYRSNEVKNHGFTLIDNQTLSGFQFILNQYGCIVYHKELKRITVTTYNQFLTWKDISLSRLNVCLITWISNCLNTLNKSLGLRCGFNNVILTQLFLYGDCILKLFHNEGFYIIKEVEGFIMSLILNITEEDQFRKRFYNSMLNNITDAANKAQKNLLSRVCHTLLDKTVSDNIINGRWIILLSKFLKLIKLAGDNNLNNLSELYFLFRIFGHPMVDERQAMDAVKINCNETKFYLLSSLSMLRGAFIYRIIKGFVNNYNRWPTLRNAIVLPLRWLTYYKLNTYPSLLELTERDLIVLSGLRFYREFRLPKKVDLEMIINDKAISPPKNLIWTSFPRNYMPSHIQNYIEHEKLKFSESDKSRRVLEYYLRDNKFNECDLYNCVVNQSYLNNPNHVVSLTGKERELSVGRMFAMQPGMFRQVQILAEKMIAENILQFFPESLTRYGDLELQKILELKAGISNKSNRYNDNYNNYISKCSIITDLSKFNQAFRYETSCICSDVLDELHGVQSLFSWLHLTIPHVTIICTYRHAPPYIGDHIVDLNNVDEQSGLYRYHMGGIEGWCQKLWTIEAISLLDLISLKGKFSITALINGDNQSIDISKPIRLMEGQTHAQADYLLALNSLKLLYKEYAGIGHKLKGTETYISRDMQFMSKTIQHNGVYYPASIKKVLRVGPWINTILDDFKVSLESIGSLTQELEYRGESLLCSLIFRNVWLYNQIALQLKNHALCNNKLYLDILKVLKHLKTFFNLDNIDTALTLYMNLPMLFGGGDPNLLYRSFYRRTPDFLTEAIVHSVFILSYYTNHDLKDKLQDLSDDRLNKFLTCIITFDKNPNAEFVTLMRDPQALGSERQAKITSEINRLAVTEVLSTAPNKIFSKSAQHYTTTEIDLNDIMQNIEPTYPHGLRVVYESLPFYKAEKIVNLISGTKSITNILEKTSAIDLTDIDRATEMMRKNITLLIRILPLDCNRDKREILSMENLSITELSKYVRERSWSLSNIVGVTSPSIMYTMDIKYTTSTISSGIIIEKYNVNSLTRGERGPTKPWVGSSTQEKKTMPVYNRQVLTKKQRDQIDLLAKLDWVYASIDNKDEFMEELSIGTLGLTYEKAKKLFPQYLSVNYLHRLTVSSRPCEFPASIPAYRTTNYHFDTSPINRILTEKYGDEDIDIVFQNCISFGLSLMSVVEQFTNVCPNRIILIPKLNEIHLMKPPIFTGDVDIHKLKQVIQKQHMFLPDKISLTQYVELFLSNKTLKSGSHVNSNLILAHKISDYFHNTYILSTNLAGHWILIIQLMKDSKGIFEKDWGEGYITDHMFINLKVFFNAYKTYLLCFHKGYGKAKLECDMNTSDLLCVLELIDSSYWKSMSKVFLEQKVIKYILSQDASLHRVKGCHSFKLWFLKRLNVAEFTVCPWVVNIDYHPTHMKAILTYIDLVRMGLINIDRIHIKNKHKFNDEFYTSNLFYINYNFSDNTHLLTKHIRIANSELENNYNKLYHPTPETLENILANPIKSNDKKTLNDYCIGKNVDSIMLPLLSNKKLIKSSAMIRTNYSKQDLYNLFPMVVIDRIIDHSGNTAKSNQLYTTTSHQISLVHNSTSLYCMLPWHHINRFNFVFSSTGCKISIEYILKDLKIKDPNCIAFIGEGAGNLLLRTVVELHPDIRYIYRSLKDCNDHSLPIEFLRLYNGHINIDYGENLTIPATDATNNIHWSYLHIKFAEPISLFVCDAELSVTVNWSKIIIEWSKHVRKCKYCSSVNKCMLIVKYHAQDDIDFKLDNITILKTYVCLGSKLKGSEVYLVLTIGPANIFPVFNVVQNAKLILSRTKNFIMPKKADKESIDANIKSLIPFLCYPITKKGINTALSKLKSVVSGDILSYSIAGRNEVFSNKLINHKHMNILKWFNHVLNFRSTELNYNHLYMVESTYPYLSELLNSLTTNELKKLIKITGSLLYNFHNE

RSV = test: Antiviral activity in cellular assay, replication of RSV in HeLa cells; type: cell-based, Respiratory syncytial virus; settings: before toxicity
VSV = settings: BHK cells, plaque assay; read-out: half maximal effective concentration (EC50), VSV replication; cited from earlier work

Row | Compound | inhibitory activity on RSV MTase-CTD compared with GpppG (RSV MTase-CTD) | IC50 (RSV L-P complex) | further results
1 | C[n+]1cn(C2OC(COP(=O)([O-])OP(=O)(O)OP(=O)(O)OCC3OC(n4cnc5c(N)ncnc54)C(O)C3O)C(O)C2O)c2nc(N)[nH]c(=O)c21 (stereo not shown) [^mGpppA] | lower inhibitory activity |  | 
2 | Nc1nc2c(ncn2[C@@H]2O[C@H](COP(=O)(O)OP(=O)(O)OP(=O)(O)OC[C@H]3O[C@@H](n4cnc5c(N)ncnc54)[C@H](O)[C@@H]3O)[C@@H](O)[C@H]2O)c(=O)[nH]1 [GpppA] | lower inhibitory activity |  | 
3 | Nc1ncnc2c1ncn2[C@@H]1O[C@H](C[C@@H](N)CC[C@H](N)C(=O)O)[C@@H](O)[C@H]1O [sinefungin] |  | 9.8 µM and ~9.8 µM | IC50 (RSV MTase-CTD): 6.4 µM and ~6.4 µM; inhibition of replication of RSV (RSV): did not show inhibition activity; EC50 (VSV): 220 µM
4 | Cn1c[n+]([C@@H]2O[C@H](COP(=O)(O)OP(=O)([O-])O)[C@@H](O)[C@H]2O)c2nc(N)[nH]c(=O)c21 [^mGDP] | lower inhibitory activity |  | 
5 | Nc1ncnc2c1ncn2[C@@H]1O[C@H](CSCC[C@H](N)C(=O)O)[C@@H](O)[C@H]1O [SAH, S-adenosyl homocysteine] |  | 37.8 µM and ~37.8 µM | IC50 (RSV MTase-CTD; 3 h): 24.7 µM and ~24.7 µM
6 | Nc1nc2c(ncn2[C@@H]2O[C@H](COP(=O)(O)OP(=O)(O)OP(=O)(O)OC[C@H]3O[C@@H](n4cnc5c(=O)[nH]c(N)nc54)[C@H](O)[C@@H]3O)[C@@H](O)[C@H]2O)c(=O)[nH]1 [GpppG] |  |  | inhibition of the activity of the RSV MTase-CTD (RSV MTase-CTD; […], methylation of GpppG-RSV9 RNA by FBA, 50 µM): 50%
